Experimental data: US6441039B1, “Gastro-intestinal adverse effect-free composition comprising an L-carnitine replacement” (priority 1998, dated 2002)
Values joined by “and” are separate entries in the source; they are usually repeats but may differ in a detail not shown here. Equal entries are not always repeated. Structures can show the parent of a compound that is named as a salt. Marks after values point to notes of the source that are not given here.

What was measured:
[1] = system: gastrointestinal motility; experiment: charcoal propulsion test, intestinal motility after single oral dose
Description: A study on the effect on intestinal motility of L-carnitine acid fumarate vs. L-carnitine L-tartrate administered by the oral route to the rat at a single dose, using the charcoal propulsion test, is hereinbelow reported.
35-day old, Hsd Sprague Dawley (SD) male rats (Harlan), weighing 125-150 g were used in the study. The rats were supplied by Harlan Nossan S.r.l., 8, Via E. Fermi, 20050 Correzzana (MI)—Italy.
Eight male rats/group were treated orally with L-Carnitine acid Fumarate, at the doses of 430-855 and 1710 mg/10 ml/kg, and with L-Carnitine L-Tartrate at the doses of 365-730 and 1455 mg/10 ml/kg.
The doses of the two compounds were chosen as equimolar to 250-500 and 1000 mg/kg of L-Carnitine Inner Salt.
Two additional groups, each consisting of eight males, were set up and orally treated respectively with the vehicle (Control group—0.5% Carboxymethylcellulose (MC) in deionized water: 10 ml/kg) or with Atropine (30 mg/10 ml/kg) as reference standard.
The animals were subdivided at random (in number of 4/cage) into the different dosage groups according to the following scheme:
Forty-five minutes after the administration of all the above reported substances, each rat received orally 1.5 ml of a 10% charcoal suspension.
Exactly twenty minutes after dosing with charcoal suspension the rats were sacrificed; then the distance the charcoal meal had travelled throughout the intestine (from the pyloric sphincter towards the caecum) was measured and expressed as a percentage of the total gut length.

[2] = oral intake, dose-related; cited from earlier work
[3] = individual rats, oral 30 mg/10 ml/kg

SMILES: CN1[C@@H]2CC[C@H]1C[C@@H](OC(=O)C(CO)c1ccccc1)C2 (stereo partly drawn) [Atropine]
- Distance travelled as % of total intestine length (individual rat) [1, 3]: 48.74% and 39.68% and 37.50% and 46.56% and 44.07% and 44.96% and 42.06% and 41.60%
- Distance travelled by charcoal (individual rat) [1, 3]: 58 cm (2×) and 50 cm and 45 cm and 61 cm and 52 cm (2×) and 53 cm
- % change from vehicle ([1]; rat, oral 30 mg/10 ml/kg): −30.87%
- change in gastrointestinal motility vs control group ([1]; rat, oral 30 mg/kg): statistically highly significant (p<0.001) decrease in gastrointestinal motility
- Distance travelled as % of total intestine length (mean) ([1]; rat, oral single dose 30 mg/10 ml/kg, n=8, p<0.001 vs control): 43.15 ▴ %

SMILES: C[N+](C)(C)C[C@H](O)CC(=O)[O-] [L-carnitine, L-carnitine inner salt]
- gastrointestinal adverse effect in users [2]: episodes of diarrhoea have been frequently reported
